The results in this text go back to patent US8716289B2, “Carbamate derivatives of alkyl-heterocycles, preparation thereof and therapeutic use thereof” (Sanofi, priority 2008, dated 2014).

Each structure is given as a SMILES string.

Broadly, the melting point is the temperature of the solid-liquid transition.

The molecule `CC(C)c1nc(COC(=O)NCC2CCN(c3nnc(Cl)c4ccccc34)CC2)no1` [Compound 59, 5-isopropyl[1,2,4]oxadiazol-3-ylmethyl [1-(4-chlorophthalazin-1-yl)piperidin-4-yl]methylcarbamate] gave a melting point of 139 to 141 °C.
The same measure for `CNC(=O)c1cc(COC(=O)NCCC2CCN(c3ccc4cc(Cl)ccc4n3)CC2)on1` [Compound 20, 3-methylcarbamoylisoxazol-5-ylmethyl 2-[1-(6-chloroquinolin-2-yl)piperidin-4-yl]ethylcarbamate]: 200 to 202 °C.
Molecule `CC(C)c1noc(COC(=O)NCCC2CCN(c3ccc(-c4ccc(F)cc4)cn3)CC2)n1` [Compound 7, 3-isopropyl[1,2,4]oxadiazol-5-ylmethyl 2-[5′-(4-fluorophenyl)-3,4,5,6-tetrahydro-2H-[1,2′]bipyridinyl-4-yl]-ethylcarbamate] yielded a melting point of 96 to 98 °C.
On to `CN(C)C1(CCNC(=O)OC(c2nccn2C)C(F)(F)F)CN(c2nnc(Cl)c3ccccc23)C1` (racemic) [Compound 63, 2,2,2-trifluoro-1-(1-methyl-1H-imidazol-2-yl)ethyl {2-[1-(4-chlorophthalazin-1-yl)-3-dimethylaminoazetidin-3-yl]ethyl}-carbamate], for which the melting point fell in the range of 168 to 170 °C.
The same measure for `O=C(NCCC1CCN(c2ccc3cc(Cl)ccc3n2)CC1)OCc1nnc(-c2ccc(Cl)cc2)o1` [Compound 13, 5-(4-chlorophenyl)[1,3,4]oxadiazol-2-ylmethyl 2-[1-(6-chloroquinolin-2-yl)piperidin-4-yl]ethylcarbamate]: 152 to 153 °C; for `CN(C)C(=O)c1cc(COC(=O)NCCC2CCN(c3cccc(-c4ccc(F)cc4)n3)CC2)on1` [Compound 27, 3-dimethylcarbamoylisoxazol-5-ylmethyl 2-[6′-(4-fluorophenyl)-3,4,5,6-tetrahydro-2H-[1,2′]bipyridinyl-4-yl]-ethylcarbamate]: 81 to 83 °C.
To `CNC(=O)c1cc(COC(=O)NCCC2CCN(c3ccc4cc(F)ccc4n3)CC2)on1` [Compound 25, 3-methylcarbamoylisoxazol-5-ylmethyl 2-[1-(6-fluoroquinolin-2-yl)piperidin-4-yl]ethylcarbamate] belongs 180 to 182 °C; to `CN(C)C(=O)c1cc(COC(=O)NCCC2CCN(c3ccc4cc(Cl)ccc4n3)CC2)on1` [Compound 31, 3-dimethylcarbamoylisoxazol-5-ylmethyl 2-[1-(6-chloroquinolin-2-yl)piperidin-4-yl]ethylcarbamate], 114 to 116 °C; to `CN(C)C(=O)c1cc(COC(=O)NCCC2CCN(c3ccc(-c4ccc(F)cc4)cn3)CC2)on1` [Compound 30, 3-dimethylcarbamoylisoxazol-5-ylmethyl 2-[5′-(4-fluorophenyl)-3,4,5,6-tetrahydro-2H-[1,2′]bipyridinyl-4-yl]-ethylcarbamate], 149 to 151 °C.
To `CNC(=O)c1cc(COC(=O)NCC2(F)CCN(c3nccc(C(F)(F)F)n3)CC2)on1` [Compound 57, 3-methylcarbamoylisoxazol-5-ylmethyl [4-fluoro-1-(4-trifluoromethylpyrimidin-2-yl)piperidin-4-yl]methylcarbamate] belongs 187 to 189 °C; to `CNC(=O)c1cc(COC(=O)NCCC2CCN(c3cccc(-c4ccc(F)cc4)n3)CC2)on1` [Compound 22, 3-methylcarbamoylisoxazol-5-ylmethyl 2-[6′-(4-fluoro-phenyl)-3,4,5,6-tetrahydro-2H-[1,2′]bipyridinyl-4-yl]-ethylcarbamate], 155.5 to 157.5 °C; to `CNC(=O)c1cc(COC(=O)NCCC2(C)CCN(c3nccc(C(F)(F)F)n3)CC2)on1` [Compound 72, 3-methylcarbamoylisoxazol-5-ylmethyl {2-[4-methyl-1-(4-trifluoromethylpyrimidin-2-yl)piperidin-4-yl]ethyl}carbamate], 160 to 162 °C.
